Test results published in the supplement of paper PMC10307832.

What was measured:
Experiment in all cases: relative viability (nuclei count vs DMSO), 5 days (fraction); higher = more cells survive
[1] = compound: COc1cc2/c(=N/c3ccc(Br)cc3F)nc[nH]c2cc1OCC1CCN(C)CC1 [Vandetanib] + CC(=O)Nc1cccc(-n2c(=O)n(C3CC3)c(=O)c3c(Nc4ccc(I)cc4F)n(C)c(=O)c(C)c32)c1 [Trametinib] (partner 0.02 µM)
Method in brief: (§1)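 Cells from lung cancer lines were seeded into 1536-well plates and, one day later, dosed by pin tool. Treatments were either a single drug or a fixed dose of an anchor drug with five library-drug doses (not always all listed) in √10 steps. After 5 days, nuclei were stained in a one-step fixation (final 0.05% Triton X-100, 1% formaldehyde, 1 ug/ml Hoechst) and counted on 4× images, and relative viability is the treated-to-vehicle nuclei ratio, as the median of duplicate plates.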

[2] = compound: COc1cc(N2CCC(N3CCN(C)CC3)CC2)ccc1Nc1ncc(Cl)c(Nc2ccccc2S(=O)(=O)C(C)C)n1 [NVP-TAE684] + CCNC(=O)c1noc(-c2cc(C(C)C)c(O)cc2O)c1-c1ccc(CN2CCOCC2)cc1 [Luminespib] (partner 0.01 µM)
Method in brief: as §1

[3] = compound: C#Cc1cccc(Nc2ncnc3cc(OC)c(OCCCCCCC(=O)NO)cc23)c1 [CUDC-101] + CC(C)C[C@H](NC(=O)[C@H](Cc1ccccc1)NC(=O)c1cnccn1)B(O)O [Bortezomib] (partner 0.002 µM)
Method in brief: as §1

[4] = compound: COc1cc(N2CCC(N3CCN(C)CC3)CC2)ccc1Nc1ncc(Cl)c(Nc2ccccc2S(=O)(=O)C(C)C)n1 [NVP-TAE684] + COc1cc2c(Oc3ccc(NC(=O)C4(C(=O)Nc5ccc(F)cc5)CC4)cc3F)ccnc2cc1OCCCN1CCOCC1 [Foretinib] (partner 0.25 µM)
Method in brief: as §1

Cell Line	relative viability ([1]; first compound 0.02 µM)	relative viability ([1]; first compound 0.06325 µM)	relative viability ([1]; first compound 0.2 µM)	relative viability ([1]; first compound 0.6325 µM)	relative viability ([1]; first compound 2 µM)	relative viability ([2]; first compound 0.6325 µM)	relative viability ([2]; first compound 2 µM)	relative viability ([3]; first compound 0.01 µM)	relative viability ([3]; first compound 0.03162 µM)	relative viability ([3]; first compound 0.1 µM)	relative viability ([3]; first compound 0.3162 µM)	relative viability ([3]; first compound 1 µM)	relative viability ([4]; first compound 0.2 µM)	relative viability ([4]; first compound 0.6325 µM)	relative viability ([4]; first compound 2 µM)	relative viability ([2]; first compound 0.2 µM)
HCC-44	1.1	1.04	1.06	1.15	1.06	0.912	0.272	0.798	1.05	0.829	0.999	0.88	–	–	–	–
EKVX	0.37	0.289	0.281	0.294	0.212	0.913	0.754	0.956	1.08	1.04	0.994	0.729	0.51	0.806	0.537	0.877
NCI-H23	0.382	0.342	0.335	0.455	0.293	0.21	0.204	0.922	0.935	1.18	1.13	0.955	1.03	0.769	0.356	0.225
NCI-H2347	0.28	0.278	0.254	0.283	0.28	0.264	0.45	0.94	1.05	0.866	0.95	0.805	–	1.15	0.521	0.245
SK-LU-1	0.453	0.344	0.562	0.567	0.458	0.217	0.167	1.55	1.03	1.48	0.829	0.976	0.947	0.766	0.469	0.188
A549	–	–	–	–	–	–	–	–	–	–	–	–	1.01	–	0.659	–
LU99A	0.486	0.518	0.396	0.512	0.539	0.259	0.253	1.36	1.14	1.04	0.998	0.635	0.873	0.83	0.365	0.301
NCI-H596	0.773	0.763	0.756	0.758	0.634	0.832	0.758	1.13	1.13	1.18	0.98	1	0.932	0.734	0.649	0.914
A-427	0.734	0.662	0.745	0.737	0.742	0.79	0.516	0.936	1.01	0.925	0.985	0.878	0.952	1.1	0.498	0.978
SW 900	0.654	0.71	–	0.673	0.549	0.154	0.158	–	–	–	–	–	0.86	0.802	0.638	0.164
COR-L 105	0.42	0.405	0.427	0.383	0.416	0.798	0.317	0.833	0.963	0.639	0.611	0.176	1.02	1.4	0.897	0.674
LOU-NH91	0.775	0.731	0.725	0.716	0.673	0.339	0.296	0.544	0.488	0.452	0.405	0.448	0.892	0.92	0.801	0.305
COR-L23	0.619	0.517	0.695	0.71	0.641	0.457	0.152	1.1	0.967	0.957	0.895	0.647	0.967	0.996	0.332	0.909
HCC-15	0.386	0.362	0.37	0.395	0.369	0.271	0.232	1.03	1.08	1.02	1	0.851	1.09	0.951	0.453	0.241
LCLC-103H	0.665	0.606	0.638	0.677	0.695	0.923	0.61	1.17	1.03	1.01	1.14	0.68	0.681	0.681	0.297	0.918
HARA	0.515	0.522	0.574	0.857	0.523	0.517	0.389	1.21	1.09	1.08	0.918	0.709	0.886	0.619	0.517	0.991
BEN	1.09	1.01	0.985	1	0.798	0.172	0.34	0.882	0.759	0.779	0.75	0.543	0.736	0.509	0.555	0.444
LC-2-ad	0.899	0.858	0.939	0.861	0.662	0.918	0.465	1.09	1.06	1.08	1.26	0.822	0.936	0.864	0.403	1.01
NCI-H1299	–	–	–	–	–	–	–	1.05	0.997	1.07	1.05	1.03	1.16	1.14	1.08	–
NCI-H2009	0.263	0.252	0.286	0.282	0.275	1.05	0.944	1.01	1.04	1.05	1.04	0.889	1.07	1.14	1.09	0.925
NCI-H1395	1.06	1.01	0.956	1.13	1.05	0.834	0.732	–	–	–	–	–	1.1	–	0.807	0.686
NCI-H1650	0.618	0.409	0.461	0.483	0.364	0.206	0.182	0.179	0.216	0.202	0.194	0.163	1.06	1.14	0.556	0.184
NCI-H2085	0.549	0.499	0.5	0.593	0.484	0.39	0.294	1.07	1.08	0.97	1.06	0.915	0.987	0.967	0.485	0.435
NCI-H1666	0.844	0.817	0.879	0.764	0.815	0.975	0.843	0.967	0.824	0.805	0.867	0.721	0.973	0.899	0.801	0.945

Cell Line	relative viability ([1]; first compound 0.02 µM)	relative viability ([1]; first compound 0.06325 µM)	relative viability ([1]; first compound 0.2 µM)	relative viability ([1]; first compound 0.6325 µM)	relative viability ([1]; first compound 2 µM)	relative viability ([2]; first compound 0.6325 µM)	relative viability ([2]; first compound 2 µM)	relative viability ([3]; first compound 0.01 µM)	relative viability ([3]; first compound 0.03162 µM)	relative viability ([3]; first compound 0.1 µM)	relative viability ([3]; first compound 0.3162 µM)	relative viability ([3]; first compound 1 µM)	relative viability ([4]; first compound 0.2 µM)	relative viability ([4]; first compound 0.6325 µM)	relative viability ([4]; first compound 2 µM)	relative viability ([2]; first compound 0.2 µM)
NCI-H1993	0.568	0.552	0.499	0.545	0.494	0.785	0.499	1.19	1.12	0.782	0.995	0.611	0.766	0.746	0.553	–
NCI-H1437	0.592	0.466	0.557	0.432	0.517	1.13	1.08	0.547	0.483	0.398	0.693	0.284	1.25	1.27	1.29	1.14
ABC-1	–	–	–	–	–	0.264	0.381	0.243	0.247	0.269	0.24	0.18	1.07	0.742	0.349	0.405
NCI-H727	0.417	0.379	0.366	0.364	0.329	0.382	0.216	0.823	0.967	0.775	0.993	0.397	0.855	0.818	0.38	0.24
PC-3 [JPC-3]	0.682	0.577	0.584	0.513	0.435	0.639	0.601	0.885	0.927	0.779	0.642	0.629	1.2	0.99	0.793	0.614
NCI-H1792	0.407	0.413	0.463	0.502	0.354	0.411	0.359	0.98	0.965	0.918	0.952	0.965	–	–	–	0.396
NCI-H1355	0.412	0.426	0.438	0.465	0.402	0.687	0.471	1.31	1.17	1.24	1.18	1.03	0.9	0.989	0.428	0.594
NCI-H1944	0.456	0.427	0.425	0.402	0.369	0.741	0.58	–	–	–	–	–	0.847	0.929	0.533	0.667
HCC-366	0.265	0.339	0.343	0.362	0.269	–	–	1.04	0.988	1.07	1.07	0.996	1.07	0.935	0.685	–
IA-LM	–	–	–	–	–	–	–	0.772	0.781	0.795	0.575	0.196	1.07	1.07	1.11	–
NCI-H2342	0.823	0.826	0.869	0.851	0.809	0.845	0.647	–	–	–	–	–	1.07	1.06	0.545	0.742
NCI-H358	0.153	0.129	0.123	0.128	0.123	0.337	0.115	–	–	–	–	–	0.736	0.672	0.099	0.25
NCI-H2170	0.905	0.875	0.931	0.896	0.858	0.618	0.663	–	–	–	–	–	1.1	0.997	0.999	0.747
NCI-H522	0.87	0.818	0.856	0.791	0.771	1.28	1.02	–	–	–	–	–	–	–	–	0.925
Calu-6	–	–	–	–	–	–	–	0.955	1.07	1.05	1.06	0.815	–	0.878	0.671	–
NCI-H1703	–	–	–	–	–	–	–	0.401	–	0.305	0.194	0.13	0.388	0.325	0.331	–
NCI-H1793	0.479	0.362	0.47	0.418	0.408	0.168	0.144	–	–	–	–	–	0.684	0.587	0.22	0.164
LK-2	0.753	0.829	0.82	0.62	0.724	0.157	0.167	–	–	–	–	–	1.14	1.28	0.316	0.169
HCC-78	0.73	0.814	0.684	0.809	0.525	–	–	0.462	0.383	0.588	0.342	0.175	0.539	0.539	0.382	–
SK-MES-1	0.593	0.464	0.304	0.405	0.357	0.76	0.321	–	–	–	–	–	0.597	1.12	0.774	0.842
NCI-H1623	–	–	–	–	–	0.54	0.322	–	–	–	–	–	0.865	0.899	0.65	0.531
NCI-H1563	–	–	–	–	–	0.548	0.407	0.842	0.712	0.948	0.916	0.792	0.914	0.88	0.696	0.542
EBC-1	–	–	–	–	–	–	–	0.658	0.421	0.409	0.245	0.153	0.0925	0.117	0.107	–
NCI-H1648	0.426	0.461	0.512	0.541	0.506	–	–	–	–	–	–	–	–	–	–	–
